Results published in ChEMBL document CHEMBL1201862, “PubChem BioAssay data set” (2004).
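Grown in 96-well plates, cells were treated for 48 hours with each compound at five concentrations. Insufficient inhibition: endpoint recorded as highest concentration tested. GI50: concentration for 50% inhibition of growth.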 Calls of active or inactive are those of the source. Rule as the data show it: active = GI50 up to about 1.1 µM and inactive = higher.

Columns and labels:
Assay in all cases: NCI anticancer screen, dose series, 48 h
HCT-15 = system: HCT-15
UACC-62 = system: UACC-62
TK-10 = system: TK-10
OVCAR-3 = system: OVCAR-3
SF-268 = system: SF-268
COLO 205 = system: COLO 205
SK-MEL-5 = system: SK-MEL-5
SK-OV-3 = system: SK-OV-3
NCI-H23 = system: NCI-H23
CCRF-CEM = system: CCRF-CEM
UO-31 = system: UO-31
MOLT-4 = system: MOLT-4
A498 = system: A498
NCI-H226 = system: NCI-H226
EKVX = system: EKVX
K562 = system: K562
SK-MEL-2 = system: SK-MEL-2
SK-MEL-28 = system: SK-MEL-28
U-251 = system: U-251
NCI-H522 = system: NCI-H522

Measured: GI50

Cc1ccc(-c2cs/c(=N\c3ccccc3)n2NC(=O)c2ccncc2)cc1
inactive: UACC-62 20.5 µM | TK-10 > 54.7 µM | OVCAR-3 35.6 µM | SF-268 42.1 µM | COLO 205 29.8 µM | SK-MEL-5 18.7 µM | SK-OV-3 33.7 µM | NCI-H23 31.3 µM | CCRF-CEM 36.6 µM | UO-31 30.6 µM | MOLT-4 26.4 µM | A498 > 75.2 µM | NCI-H226 28.4 µM | EKVX 37.3 µM | K562 15 µM | SK-MEL-2 28.5 µM | SK-MEL-28 36.6 µM | U-251 19.1 µM
42.5 µM: HCT-15

CCOc1ccccc1-c1nc2c(s1)C(=O)c1ccccc1C2=O
25.7 µM: HCT-15
inactive: UACC-62 3.78 µM | TK-10 19.3 µM | OVCAR-3 2.25 µM | NCI-H522 11.8 µM | SF-268 12.6 µM | COLO 205 24.7 µM | SK-MEL-5 5.12 µM | SK-OV-3 15 µM | NCI-H23 10.5 µM | UO-31 12.6 µM | MOLT-4 3.53 µM | A498 15.9 µM | EKVX 17.2 µM | K562 4.61 µM | SK-MEL-2 15.7 µM | SK-MEL-28 16.7 µM | U-251 14.6 µM

NC(=O)c1ccc[n+](C2=C([N-]S(=O)(=O)c3ccccc3)C(=O)c3ccccc3C2=O)c1
23.3 µM: HCT-15
inactive: UACC-62 17.9 µM | TK-10 20.4 µM | OVCAR-3 5.08 µM | NCI-H522 10.9 µM | SF-268 16.6 µM | COLO 205 12.8 µM | SK-MEL-5 5.51 µM | SK-OV-3 29.4 µM | NCI-H23 14.9 µM | CCRF-CEM 42.6 µM | UO-31 14.5 µM | MOLT-4 25.2 µM | NCI-H226 14.7 µM | EKVX 14.3 µM | K562 64.3 µM | SK-MEL-2 12.8 µM | SK-MEL-28 16 µM | U-251 15.1 µM

O=C1C=C(c2ccccc2)NC1(c1ccccc1)c1cc(-c2ccccc2)[nH]c1-c1ccccc1 (centres undefined)
> 100 µM: HCT-15
inactive: UACC-62 > 100 µM | OVCAR-3 > 100 µM | COLO 205 > 100 µM | SK-OV-3 > 100 µM | NCI-H23 > 100 µM | CCRF-CEM > 100 µM | UO-31 > 100 µM | MOLT-4 > 100 µM | A498 > 100 µM | EKVX > 100 µM | K562 > 100 µM | SK-MEL-2 > 100 µM | SK-MEL-28 > 100 µM | U-251 > 100 µM

Nn1c(=S)[nH]nc(/C=C/c2c(O)ccc3ccccc23)c1=O
3.13 µM: HCT-15
inactive: UACC-62 4.88 µM | OVCAR-3 3.13 µM | NCI-H522 3.32 µM | SF-268 2.96 µM | COLO 205 7.18 µM | SK-MEL-5 10.2 µM | SK-OV-3 11 µM | NCI-H23 3.24 µM | CCRF-CEM 1.92 µM | UO-31 6.35 µM | MOLT-4 4.29 µM | A498 16.9 µM | EKVX 2.75 µM | K562 5.27 µM | SK-MEL-2 13.3 µM | SK-MEL-28 8.95 µM | U-251 8.22 µM

CC(C)c1cccc(C(C)C)c1NC(=O)CCC(=O)NN
inactive: UACC-62 > 100 µM | TK-10 > 100 µM | OVCAR-3 > 100 µM | SF-268 > 100 µM | COLO 205 19.6 µM | SK-MEL-5 > 100 µM | SK-OV-3 > 100 µM | NCI-H23 > 100 µM | CCRF-CEM > 100 µM | UO-31 > 100 µM | MOLT-4 > 100 µM | A498 > 100 µM | NCI-H226 > 100 µM | EKVX > 100 µM | K562 58.6 µM | SK-MEL-28 > 100 µM | U-251 > 100 µM
18 µM: HCT-15

O=C(CC/C(CC(=O)c1ccc(Cl)cc1)=N\O)Nc1cccc(Cl)c1
inactive: UACC-62 > 100 µM | TK-10 > 100 µM | OVCAR-3 > 100 µM | SF-268 > 100 µM | COLO 205 > 100 µM | SK-MEL-5 > 100 µM | SK-OV-3 > 100 µM | NCI-H23 > 100 µM | CCRF-CEM > 100 µM | UO-31 > 100 µM | MOLT-4 > 100 µM | A498 > 100 µM | EKVX > 100 µM | K562 > 100 µM | SK-MEL-2 > 100 µM | SK-MEL-28 > 100 µM | U-251 > 100 µM
> 100 µM: HCT-15

O=C1Cc2ccccc2N1/N=C\c1ccc([N+](=O)[O-])cc1
inactive: UACC-62 > 100 µM | TK-10 > 100 µM | OVCAR-3 > 100 µM | SF-268 > 100 µM | COLO 205 > 100 µM | SK-MEL-5 > 100 µM | SK-OV-3 > 100 µM | NCI-H23 > 100 µM | CCRF-CEM > 100 µM | UO-31 > 100 µM | MOLT-4 > 100 µM | A498 > 100 µM | NCI-H226 > 100 µM | EKVX > 100 µM | K562 > 100 µM | SK-MEL-2 > 100 µM | SK-MEL-28 > 100 µM | U-251 > 100 µM
> 100 µM: HCT-15
